# Source: patent publication US20260198495A1, “BINARY INSECTICIDE COMPOSITION AND USE THEREOF” (SHENYANG SINOCHEM AGROCHEMICALS R & D CO., LTD., priority 2022, published 2026)
# Columns and labels:
# Format in all cases: in vivo
# [1] = test system: 2nd-instar larvae of Mythimna separata; experiment: Joint toxicity of I-72 + hexaflumuron, Example 56, Table 56; settings: foliar, A = compound I-72, B = hexaflumuron, corn leaf dipping, 72 hours, read-out: LC50
# Protocol: Test target: 2nd-instar larvae of Mythimna separata.
# (§1) Preparation of the pesticide solution: according to different test requirements, the test samples were accurately weighed respectively with an electronic analytical balance. The technical pesticides were dissolved in acetone, and then diluted with 0.1% Tween 80 water into a series of pesticide solutions with a certain concentration gradient according to the experimental design dosage.
# Experimental method: first, corn leaves were selected and dipped in the prepared pesticide solution for 10 s in the order from low dosage to high dosage according to the experimental design. After natural air-drying in the shade, they were placed in a 9-cm-diameter Petri dish with filter paper, and uniform and healthy test insects were introduced, with 10 insects for each treatment and 3 replicates for each treatment. In addition, a blank control was set up.
# (§2) The treated test materials were placed in an observation room, and the temperature, humidity and illumination of the observation room could be adjusted as needed. The number of dead and live insects was investigated 72 hours later. […] Then, the co-toxicity coefficient of each ratio was calculated using the Sun Y-P method to evaluate the mixing effect (the same as in Example 1).
# [2] = test system: adult Phyllotreta striolata (Walker); experiment: Joint toxicity of I-72 + rotenone, insect dipping, Example 35, Table 35; settings: A = compound I-72, B = rotenone, insect dipping 10 s, read-out: LC50
# Excerpt: Test target: adult Phyllotreta striolata (Walker), a strain reared indoors.
# Experimental method: the dipping method was adopted. Adult flea beetles of uniform size were put into an insect-dipping cage and dipped for 10 s in the order from low dosage to high dosage according to the experimental design, with 30 beetles for each treatment. The beetles were placed in a 9-cm-diameter Petri dish with filter paper, with 3 replicates for each treatment. In addition, a blank control was set up. The treated test materials were placed in an observation room, and the temperature, humidity and illumination of the observation room could be adjusted as needed.
# The test conditions, the preparation of the pesticide solution and the evaluation method were the same as those in Example 1.
# [3] = test system: Empoasca pirisuga; experiment: Field efficacy trial of I-72 and Beauveria bassiana in a tea garden, Example 88, Table 88; settings: spraying
# Protocol: This trial was performed in a tea garden in Yuhang District, Hangzhou. The spraying method was used for pesticide application. The investigation method was to take samples at 5 points, with 2 fixed plants at each point. A total of 10 plants were investigated in each plot, and the trial was replicated four times. The number of Empoasca vitis nymphs on the back of 100 tender leaves in each plot was randomly investigated. The amount of the pesticide solution sprayed was 75 L per mu. The base number was investigated before the pesticide application, and the number of live Empoasca pirisuga in each treatment sample point was investigated 3, 7 and 14 days after the pesticide application. The calculation method for the efficacy of the test pesticides was the same as that in Example 38.
# Test pesticides: A: wettable powder of Beauveria bassiana with 40 billion spores/gram (Jiangxi Tianren Ecology Co., Ltd.); and B: compound I-72 (dissolved in acetone, 0.1% Tween 80 was added, and a 10% stock solution was prepared for use).
# [4] = test system: adult Tetranychus cinnabarinus (Boisduval); experiment: Joint toxicity of I-72 + spirodiclofen, potted-seedling spraying, Example 25, Table 25; settings: Tetranychus cinnabarinus, A = compound I-72, B = spirodiclofen, 72 hours, read-out: LC50
# Protocol: Test target: adult Tetranychus cinnabarinus (Boisduval), a sensitive strain reared indoors.
# as §1
# Experimental method: the activity of the mixture against the adult Tetranychus cinnabarinus (Boisduval) was determined by adopting the potted-seedling spraying method. First, the adult Tetranychus cinnabarinus of uniform size were transferred onto the leaves of kidney bean seedlings at the stage when the first pair of true leaves was fully expanded. After the adult mites had stabilized, the base number was counted. Then, the uniform spraying was performed with the pesticide solution in the order from low to high dose according to the experimental design, with 1.5 mL for each seedling and 3 replicates for each treatment. […]
# as §2, with “needed.” for “needed. The number of dead and live insects was investigated 72 hours later.”, “effect,” for “effect (the same”, “1.” for “1).”
# [5] = test system: second-instar larvae of Meloidogyne incognita; experiment: In vitro joint toxicity of I-72 + fluopyram, 24-well plate, Example 32, Table 32; settings: A = I-72, B = fluopyram, 24-well plate, 25° C., 48 hours, read-out: LC50
# Protocol: Test target: second-instar larvae of Meloidogyne incognita, a sensitive strain reared in a greenhouse.
# as §1
# Experimental method: the prepared pesticide solutions were added to a 24-well plate in the order from low dosage to high dosage according to the experimental design. In each well of each treatment, 50 nematodes were placed. Each drug had 5 concentrations set, with 3 replicates. After the treatment, the 24-well plate was placed in a constant temperature incubator at 25° C. In addition, a blank control group was set up. The number of dead and live insects was investigated 48 hours later. […] Then, the co-toxicity coefficient of each ratio was calculated using the Sun Y-P method to evaluate the mixing effect (the same as in Example 1).
# [6] = test system: early 2nd-instar grubs of Holotrichia diomphalia Bates; experiment: whole plant or invertebrate; settings: Holotrichia diomphalia; A = compound I-72, B = tebuconazole; insect-dipping; 72 hours; read-out: LC50
# Protocol: Test target: early 2nd-instar grubs of Holotrichia diomphalia Bates.
# Test conditions: temperature: 24-26° C., humidity: RH 60%, and illumination: L:D=14:10
# as §1
# Experimental method: the activity against Holotrichia diomphalia Bates was determined by the insect-dipping method. The early 2nd-instar grubs of Holotrichia diomphalia Bates were selected. The target insects were dipped into the pesticide solution for 10 s and then taken out. Excess pesticide solution was absorbed with filter paper. […] A treatment without the pesticide was set as the blank control.
# The test insects were transferred to a multi-well culture plate with fresh potato pieces and placed in an observation room, and the temperature, humidity and illumination of the observation room could be adjusted as needed. The number of dead and live insects was investigated 72 hours later. The corrected mortality rate was calculated using the Abbott's formula, and statistical analysis was performed with the DPS data processing software to obtain the toxicity regression equation and LC50 value of each single test pesticide and each mixture of different ratios.
smiles,measurement,setting,value
CN(C(=O)c1ccc2c(c1)OC(F)(F)O2)c1cccc(C(=O)Nc2c(Br)cc(C(F)(C(F)(F)F)C(F)(F)F)cc2OC(F)F)c1F [Compound I-72],LC50,[1],0.0301 µg/mL
same,LC50,[2],1.81 µg/mL
same,Control efficacy 3 days after pesticide application,[3]; dose 15 ml,57.0%
same,Control efficacy 7 days after pesticide application,[3]; dose 15 ml,75.8%
same,Control efficacy 14 days after pesticide application,[3]; dose 15 ml,74.2%
same,Control efficacy 3 days after pesticide application,[3]; dose 30 ml,57.5%
same,Control efficacy 7 days after pesticide application,[3]; dose 30 ml,77.7%
same,Control efficacy 14 days after pesticide application,[3]; dose 30 ml,79.3%
same,Control efficacy 3 days after pesticide application,[3]; dose 45 ml,62.5%
same,Control efficacy 7 days after pesticide application,[3]; dose 45 ml,78.1%
same,Control efficacy 14 days after pesticide application,[3]; dose 45 ml,78.9%
same,LC50,[4],35.1 µg/mL
same,LC50,[5],249 µg/mL
same,LC50,[6],63.4 µg/mL
